Source: patent publication US10112918B2, “15-oxospiramilactone derivatives, preparation method and uses thereof” (Kunming Institute of Botany, The Chinese Academy of Sciences, priority 2013, dated 2018)
Where two headings read alike, the source gives them in different places.

Key:
Assay type in all cases: cell-based
[1] = tested on: MCF-7 (human breast cancer cells); experiment: MTT inhibition of tumor cell growth, MCF-7; settings: Homo sapiens, MCF7, 48 h
In short: (§1)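 48 h MTT growth assay, 37° C, triplicate wells. Seeding 5000-10000 cells/well in 10% FBS medium (DMEM or RPMI1640); primary screen 40 μM, then 5-point gradient. A595 after SDS solubilisation; IC50 by Reed and Muench two-point method.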

[2] = tested on: Wnt signaling pathway (Top-Flash reporter gene); experiment: Top-Flash Wnt reporter gene assay in HEK293T cells with Wnt3a conditioned medium
In short: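 HEK293T transfected with TOP-flash (5 ng/well) plus GFP plasmid for normalization, then treated 6 h with mouse Wnt3a conditioned medium from L cells, with or without compound. GFP-normalized luciferase minus DMSO-only background, scaled to Wnt-induced activity; IC50 at 0.5 relative residual activity from 4-parameter logistic fit.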

[3] = tested on: A-549 (Human lung adenocarcinoma cells); experiment: MTT inhibition of tumor cell growth, A-549; settings: Homo sapiens, A549, 48 h
In short: as §1

[4] = tested on: HL-60 (human promyelocytic leukemia cells); experiment: MTT inhibition of tumor cell growth, HL-60; settings: Homo sapiens, HL-60, 48 h
In short: as §1

[5] = tested on: SW-480 (human colon cancer cells); experiment: MTT inhibition of tumor cell growth, SW-480; settings: Homo sapiens, SW480, 48 h
In short: as §1

[6] = Table 1, 7-hydroxy derivatives of S-3
[7] = Table 2, derivatives having potential Michael reaction acceptor
[8] = Table 3, single Michael reaction acceptor, modified lactonic ring
[9] = Table 4, derivatives obtained by reduction of the lactonic ring
[10] = Table 5, derivatives having double Michael reaction acceptor
[11] = Table 7 (first), alkaloid derivatives

With `C=C1C(=O)[C@]23CC[C@H]1CC2[C@@]12CCC[C@@](C)(COC1=O)C2C[C@H]3O` (some centres unmarked) [Compound 1, 15-oxospiramilactone] the IC50 [1, 6] was 3.25 µM, the IC50 [1, 7] was 3.25 µM and the IC50 [1, 8] was 3.25 µM. The IC50 [1, 9] was 3.25 µM, the IC50 [1, 10] was 3.25 µM and the IC50 [1, 11] was 3.25 µM. The IC50 ([2]; Homo sapiens, HEK-293T, 6 h, Table 7 (second), derivatives modified on 7-hydroxyl of S-3, HEK293T, Wnt3a conditioned medium, 6 h, read-out: IC50 (μM), inhibitory activity on the Wnt signaling pathway) was 18.4 ± 1.82 µM, the IC50 ([2]; Homo sapiens, HEK-293T, 6 h, Table 8, HEK293T, Wnt3a conditioned medium, 6 h, read-out: IC50 (μM), inhibitory activity on the Wnt signaling pathway) was 18.7 ± 0.58 µM and the IC50 ([2]; Homo sapiens, HEK-293T, 6 h, Table 9, HEK293T, Wnt3a conditioned medium, 6 h, read-out: IC50(μM), inhibitory activity on the Wnt signaling pathway) was 18 ± 0.28 µM. For the same compound, the IC50 ([2]; Homo sapiens, HEK-293T, 6 h, Table 10, HEK293T, Wnt3a conditioned medium, 6 h, read-out: IC50 (μM), inhibitory activity on the Wnt signaling pathway) was 13.9 ± 2.01 µM, the IC50 ([2]; Homo sapiens, HEK-293T, 6 h, Table 11, HEK293T, Wnt3a conditioned medium, 6 h, read-out: IC50 (μM), inhibitory activity on the Wnt signaling pathway) was 22.5 ± 0.56 µM and the IC50 ([2]; Homo sapiens, HEK-293T, footnotes of Tables 8 and 9: S-3 control in the run of the compounds marked a or b, read-out: corresponding IC50 value of S-3 (Wnt signaling pathway)) was 18.4 µM. For the same compound, the IC50 ([2]; footnotes of Tables 8 and 9: S-3 control in the run of the compounds marked a or b, listed as S-3, read-out: corresponding IC50 value of S-3 (Wnt signaling pathway)) was 15.3 µM, the IC50 [3, 6] was 3.22 µM and the IC50 [3, 7] was 3.22 µM. It also gave an IC50 [3, 8] of 3.22 µM, an IC50 [3, 9] of 3.22 µM and an IC50 [3, 10] of 3.22 µM. For the same compound, the IC50 [3, 11] was 3.22 µM, the IC50 [4, 6] was 6.36 µM and the IC50 [4, 7] was 6.36 µM. It also gave an IC50 [4, 8] of 6.36 µM, an IC50 [4, 9] of 6.36 µM and an IC50 [4, 10] of 6.36 µM. For the same compound, the IC50 [4, 11] was 6.36 µM, the IC50 ([5]; Table 1, 7-hydroxy derivatives of S-3, read-out: IC50 SW-480) was 3.58 µM and the IC50 ([5]; Table 2, derivatives having potential Michael reaction acceptor, read-out: IC50 SW-480) was 3.58 µM. For the same compound, the IC50 ([5]; Table 3, single Michael reaction acceptor, modified lactonic ring, read-out: IC50 SW-480) was 3.58 µM, the IC50 ([5]; Table 4, derivatives obtained by reduction of the lactonic ring, read-out: IC50 SW-480) was 3.58 µM and the IC50 ([5]; Table 5, derivatives having double Michael reaction acceptor, read-out: IC50 SW-480) was 3.58 µM. It also gave an IC50 ([5]; Table 6, 7-hydroxyl derivatives and controls, read-out: IC50 SW-480, 7-hydroxyl derivatives) of 2.99 µM and an IC50 ([5]; Table 7 (first), alkaloid derivatives, read-out: IC50 SW-480) of 3.58 µM.
